In US5606038A, “Amphiphilic polyene macrolide antibiotic compounds” (Competitive Technologies, Inc., priority 1995, dated 1997):
Values after ≈ are worked out from the molar mass of the structure shown. Read-outs that look alike come from different tables or passages of the source.

Experiments:
[1] = system: Cryptococcus neoformans; assay: minimum inhibitory concentration, Cryptococcus neoformans, broth microdilution; assay type: cell-based; details: 24 h
Experimental: Microorganism inocula was harvested from one to five day old cultures grown on Sabourand's dextrose agar. After two washes with sterile saline, the inocula were counted utilizing a hemacytometer and diluted or concentrated as required to 1×10^4 blastospores per ml. Sterile molten agar (at 50° C.) was inoculated, allowed to cool, and 10 mm diameter discs impregnated (from […] stock solutions) with each of the test compounds was placed on the surface of the agar. Zones of inhibition were measured after incubating the plates at 30° C. for 24-48 hours.
The compounds were then screened against three strains of three species of microorganisms: Candida albicans, Cryptococcus neoformans, and Aspergillus fumigatus using a conventional double dilution technique. All tests reported in Table II were done by broth microdilution in yeast nitrogen base-glucose using an inoculum of 1×10^4 blastospores per ml; the cultures were incubated at 37° C. for 24 hours, and the minimum concentration (in μg/ml) that prevents visible growth was recorded as the minimum inhibitory concentration.

[2] = system: Cryptococcus neoformans (isolate NIH C-1); assay: MIC against infecting isolate of Example VI; assay type: cell-based

COCCOCCOCCOCCOCCOCCNC(=O)[C@H]1[C@@H]2C[C@@H](O[C@@H]3O[C@H](C)[C@@H](O)[C@H](N)[C@@H]3O)/C=C/C=C/C=C/C=C/C=C/C=C/C=C/[C@H](C)[C@@H](O)[C@@H](C)[C@H](C)OC(=O)C[C@H](O)C[C@H](O)CC[C@@H](O)[C@H](O)C[C@H](O)C[C@](O)(C[C@@H]1O)O2 [Example II]
MIC ([1]; C. neoformans (1), 37° C., read-out: minimum inhibitory concentration): 3.2 µg/mL (≈ 2.66 µM)
MIC ([1]; C. neoformans (2), 37° C., read-out: minimum inhibitory concentration): 3.2 µg/mL (≈ 2.66 µM)
MIC ([1]; read-out: minimum inhibitory concentration, C. neofornams (3), 37° C.): 3.2 µg/mL (≈ 2.66 µM)
MIC [2]: ≤ 6.06 µg/mL
MIC ([2]; 48 h): 1.51 µg/mL (≈ 1.26 µM)
MIC ([2]; 72 h): 3.03 µg/mL (≈ 2.52 µM)
